Assay results as given in US10052310B2, “Separase inhibitors and uses thereof” (Baylor College of Medicine, priority 2013, dated 2018).

Legend:
[1] = test system: A549; assay: MTT in vitro cytotoxicity assay; type: cell-based; conditions: Homo sapiens, A549, Lung, 72 h, read-out: IC50 growth inhibition
Description: (§1) The inhibitory effect of Sepin-1 on cell growth was assayed using the 3-(4,5-dimethylthiazol-2yl)-2,5-diphenyl-tetrazolium bromide (MTT) colorimetric dye reduction method (Cancer Chemother. Pharmacol., 2006, 58, 13-23). One hundred thirty-five μl of exponentially growing cancer cells were plated at a density of 0.4-1.0×10^5 cells/well in a 96-well microtiter plate. After 16 h, Sepin-1 at specified concentrations was added to each well. After 72 h of continuous drug exposure, 15 μl of 5 mg/ml MTT was added to each well and the plates were incubated for 4 h at 37° C. Medium was replaced with 150 μl of DMSO to solubilize the formazan, and the optical density (OD) was measured at 550 nm using a microplate spectrophotometer (Anthos Analytical, Durham, N.C., USA). Cell viability was calculated by subtracting the background OD of media alone from the OD of test wells, then dividing by the OD of the control (untreated) wells. Replicates of 3 wells were used for each drug concentration. The in vitro cytotoxicity assay was repeated once and the IC50 reported was the average of two independent experiments.

[2] = test system: CHP212; assay: MTT in vitro cytotoxicity assay; type: cell-based; conditions: Homo sapiens, CHP-212, CHP212, Neuroblastoma, 72 h, read-out: IC50 growth inhibition
Description: as §1

[3] = test system: HBL100; assay: MTT in vitro cytotoxicity assay; type: cell-based; conditions: Homo sapiens, HBL-100, HBL100, Breast, 72 h, read-out: IC50 growth inhibition
Description: as §1

[4] = test system: JM1; assay: MTT in vitro cytotoxicity assay; type: cell-based; conditions: Homo sapiens, JM1, Leukemia, 72 h, read-out: IC50 growth inhibition
Description: as §1

[5] = test system: NGP; assay: MTT in vitro cytotoxicity assay; type: cell-based; conditions: Homo sapiens, Neuroblastoma, 72 h, read-out: IC50 growth inhibition
Description: as §1

[6] = test system: Raji; assay: MTT in vitro cytotoxicity assay; type: cell-based; conditions: Homo sapiens, Leukemia, 72 h, read-out: IC50 growth inhibition
Description: as §1

[7] = test system: SHEP; assay: MTT in vitro cytotoxicity assay; type: cell-based; conditions: Homo sapiens, Neuroblastoma, 72 h, read-out: IC50 growth inhibition
Description: as §1

[8] = test system: SK-N-AS; assay: MTT in vitro cytotoxicity assay; type: cell-based; conditions: Homo sapiens, Neuroblastoma, 72 h, read-out: IC50 growth inhibition
Description: as §1

[9] = test system: MCF7; assay: MTT in vitro cytotoxicity assay; type: cell-based, human
Description: as §1

[10] = test system: MCF7 xenografts; assay: Growth inhibition of MCF7 xenograft tumors; type: in vivo, SCID-beige mice
Description: For treatment studies, MCF7 xenografts (ER+ PR+ HER2−) were generated by injection of one million cultured cells grown under standard in vitro conditions as previously described (Proc. Natl. Acad. Sci. U. S. A 105, 2008, 13033-13038). Donor tumors for PDX lines MC1 and BCM-5471 were divided into small fragments and retransplanted into the fat pat of recipient SCID Beige mice (5 mice per group). When the tumors reached approximately ˜200 mg, mice were treated with either vehicle or Sepin-1. Sepin-1 was injected at dose of 10 mg/kg daily for 5 days a week for 3 weeks. […] Vehicle injected mice served as controls. Size of the xenografts were measured every four days using calipers and tumor weight was estimated using the guidelines by NCI for xenograft evaluation (http://ncifrederick.cancer.gov/Lasp/Acuc/Frederick/Media/Documents/ACUC14.pdf). After 3 weeks treatment, the tumors were harvested and fixed in 10% Buffed Formalin Phosphate (Fisher Scientific, Pittsburgh, Pa.) overnight. The tumor tissues were washed with PBS for 3×30 min; dehydrated for 1 h at 70%, 80%, 90% and 100% two times; and immerged in Xylene several times until the tissues became clear. The samples were embedded in wax and sectioned with 5 μm in thickness. All mice were maintained in accordance with the NIH Guide for the Care and Use of Laboratory Animals with approval from the Baylor College of Medicine Institutional Animal Care and Use Committee.

[11] = test system: Separase overexpressing primary pediatric glioblastoma samples; assay: MTT cytotoxicity assays in primary pediatric glioblastoma samples; type: cell-based; conditions: two Separase overexpressing primary pediatric glioblastoma samples
Description: (§2) FIG. 10 provides data relating to separase overexpression in Pediatric glioblastoma (GBM) and the effect of Sepin-1 in inhibiting the growth of glioblastoma cells in vitro and in vivo. […] SCID-beige mice after two weeks of transplantation were treated at a dose of 10 mg/kg daily ip for 5 days a week for 4 weeks with either Sepin-1 or vehicle (n=6/group).

[12] = test system: pediatric GBM tumor (#4687) orthotopic xenograft; assay: Survival analysis, orthotopic xenograft of pediatric GBM tumor; type: in vivo, SCID-beige mice; conditions: 10 mg/kg daily ip, 5 days a week, 4 weeks, n=6/group
Description: as §2

[13] = MCF7 xenograft tumors treated with Sepin-1 versus vehicle

## CC1(C)[N+]([O-])=c2ccc([N+](=O)[O-])cc2=[N+]1[O-] [Sepin-1, 2,2-dimethyl-5-nitro-2H-benzimidazole-1,3 dioxide]
[1]
  IC50: 53.1 µM
[2]
  IC50: 9 µM
[3]
  IC50: 11.5 µM
[4]
  IC50: 1 µM
[5]
  IC50: 7.8 µM
[6]
  IC50: 4.4 µM
[7]
  IC50: 62.5 µM
[8]
  IC50: 17.1 µM
[9]; Homo sapiens, MCF7, Breast, 72 h, read-out: IC50 growth inhibition
  IC50: 14.4 µM
[9]; MCF7 versus MCF10f
  sensitivity of MCF7 cells relative to MCF10f cells: over 3.3 times
[10]; 10 mg/kg daily, 5 days a week, 3 weeks
  growth of MCF7 xenograft tumors: inhibits the growth of xenograft tumor derived from MCF-7
[10]; [13]
  apoptotic bodies in H&E stained tumor sections: increase of apoptotic bodies
  cleaved caspase-3 staining of tumor sections: significantly increased
[11]
  cell death in MTT cytotoxicity assays: efficient cell death
[12]
  life span of treated mice: significant increase in the life span
